Measurements: the supplement of paper PMC10307832

How the values were obtained:
Experiment in all cases: relative viability (nuclei count vs DMSO), 5 days (fraction); higher = more cells survive
[1] = system: ChaGo-K-1
Summary of the method: (§1)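 Relative viability was taken as the ratio of nuclei in treated wells to nuclei in vehicle wells. Lung cancer cell lines in 1536-well plates received compounds by pin tool one day after seeding, either one drug alone or a fixed anchor-drug dose plus five library-drug doses (not always all listed) in √10 steps. Nuclei were counted on 4× images after 5 days of treatment, and values are medians of duplicate plates.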

[2] = system: EMC-BAC-2
Summary of the method: as §1

[3] = system: EPLC-272H
Summary of the method: as §1

[4] = system: HCC-78
Summary of the method: as §1

[5] = system: HCC-827
Summary of the method: as §1

[6] = system: LCLC-103H
Summary of the method: as §1

[7] = system: LOU-NH91
Summary of the method: as §1

[8] = system: LU99A
Summary of the method: as §1

[9] = system: LXF-289
Summary of the method: as §1

[10] = system: NCI-H1563
Summary of the method: as §1

[11] = system: NCI-H1666
Summary of the method: as §1

[12] = system: NCI-H1975
Summary of the method: as §1

[13] = system: NCI-H2085
Summary of the method: as §1

[14] = system: NCI-H2126
Summary of the method: as §1

[15] = system: NCI-H23
Summary of the method: as §1

[16] = system: NCI-H2405
Summary of the method: as §1

[17] = system: NCI-H3122
Summary of the method: as §1

[18] = system: NCI-H322M
Summary of the method: as §1

[19] = system: RERF-LC-KJ
Summary of the method: as §1

[20] = system: SK-LU-1
Summary of the method: as §1

[21] = system: SW 1573
Summary of the method: as §1

`NC(=O)Nc1cc(-c2cccc(F)c2)sc1C(=O)N[C@H]1CCCNC1` [AZD7762] + CC(C)C[C@H](NC(=O)[C@H](Cc1ccccc1)NC(=O)c1cnccn1)B(O)O [Bortezomib] (partner 0.002 µM) gave a relative viability ([1]; first compound 0.01 µM) of 0.861, a relative viability ([1]; first compound 0.03162 µM) of 1.01 and a relative viability ([1]; first compound 0.1 µM) of 0.961. For the same compound, the relative viability ([1]; first compound 0.3162 µM) was 0.958, the relative viability ([1]; first compound 1 µM) was 0.865 and the relative viability ([2]; first compound 0.01 µM) was 1.12. The relative viability ([2]; first compound 0.03162 µM) was 1.08, the relative viability ([2]; first compound 0.1 µM) was 1.09 and the relative viability ([2]; first compound 0.3162 µM) was 1.15. For the same compound, the relative viability ([2]; first compound 1 µM) was 1.12, the relative viability ([3]; first compound 0.01 µM) was 0.81 and the relative viability ([3]; first compound 0.03162 µM) was 1.01. For the same compound, the relative viability ([3]; first compound 0.1 µM) was 1.02, the relative viability ([3]; first compound 0.3162 µM) was 0.828 and the relative viability ([3]; first compound 1 µM) was 0.992. For the same compound, the relative viability ([4]; first compound 0.01 µM) was 0.561, the relative viability ([4]; first compound 0.03162 µM) was 0.528 and the relative viability ([4]; first compound 0.1 µM) was 0.526. It also gave a relative viability ([4]; first compound 0.3162 µM) of 0.62, a relative viability ([4]; first compound 1 µM) of 0.391 and a relative viability ([5]; first compound 0.01 µM) of 1.02. The relative viability ([5]; first compound 0.03162 µM) was 1.05, the relative viability ([5]; first compound 0.1 µM) was 1.16 and the relative viability ([5]; first compound 0.3162 µM) was 1.08. For the same compound, the relative viability ([5]; first compound 1 µM) was 0.929, the relative viability ([6]; first compound 0.01 µM) was 1.19 and the relative viability ([6]; first compound 0.03162 µM) was 1.08. For the same compound, the relative viability ([6]; first compound 0.1 µM) was 1.25, the relative viability ([6]; first compound 0.3162 µM) was 0.95 and the relative viability ([6]; first compound 1 µM) was 0.867. The relative viability ([7]; first compound 0.01 µM) was 0.558, the relative viability ([7]; first compound 0.03162 µM) was 0.462 and the relative viability ([7]; first compound 0.1 µM) was 0.487. It also gave a relative viability ([7]; first compound 0.3162 µM) of 0.548, a relative viability ([7]; first compound 1 µM) of 0.522 and a relative viability ([8]; first compound 0.01 µM) of 1.09. It also gave a relative viability ([8]; first compound 0.03162 µM) of 1.24, a relative viability ([8]; first compound 0.1 µM) of 1.25 and a relative viability ([8]; first compound 0.3162 µM) of 0.867. The relative viability ([8]; first compound 1 µM) was 0.402, the relative viability ([9]; first compound 0.01 µM) was 0.918 and the relative viability ([9]; first compound 0.03162 µM) was 0.947. It also gave a relative viability ([9]; first compound 0.1 µM) of 1.07, a relative viability ([9]; first compound 0.3162 µM) of 1 and a relative viability ([9]; first compound 1 µM) of 1.12. It also gave a relative viability ([10]; first compound 0.01 µM) of 0.843, a relative viability ([10]; first compound 0.03162 µM) of 0.963 and a relative viability ([10]; first compound 0.1 µM) of 1.05. The relative viability ([10]; first compound 0.3162 µM) was 0.976, the relative viability ([10]; first compound 1 µM) was 0.746 and the relative viability ([11]; first compound 0.01 µM) was 0.906. For the same compound, the relative viability ([11]; first compound 0.03162 µM) was 0.906, the relative viability ([11]; first compound 0.1 µM) was 1.13 and the relative viability ([11]; first compound 0.3162 µM) was 0.848. It also gave a relative viability ([11]; first compound 1 µM) of 0.688, a relative viability ([12]; first compound 0.01 µM) of 0.468 and a relative viability ([12]; first compound 0.03162 µM) of 0.44. The relative viability ([12]; first compound 0.1 µM) was 0.417, the relative viability ([12]; first compound 0.3162 µM) was 0.399 and the relative viability ([12]; first compound 1 µM) was 0.272. It also gave a relative viability ([13]; first compound 0.01 µM) of 1.11, a relative viability ([13]; first compound 0.03162 µM) of 1.14 and a relative viability ([13]; first compound 0.1 µM) of 1.11. For the same compound, the relative viability ([13]; first compound 0.3162 µM) was 1.14, the relative viability ([13]; first compound 1 µM) was 0.887 and the relative viability ([14]; first compound 0.01 µM) was 1.06. It also gave a relative viability ([14]; first compound 0.03162 µM) of 1.11, a relative viability ([14]; first compound 0.1 µM) of 1.18 and a relative viability ([14]; first compound 0.3162 µM) of 1.2. It also gave a relative viability ([14]; first compound 1 µM) of 1.07, a relative viability ([15]; first compound 0.01 µM) of 1.26 and a relative viability ([15]; first compound 0.03162 µM) of 0.986. For the same compound, the relative viability ([15]; first compound 0.1 µM) was 0.742, the relative viability ([15]; first compound 0.3162 µM) was 0.597 and the relative viability ([15]; first compound 1 µM) was 0.284. For the same compound, the relative viability ([16]; first compound 0.01 µM) was 0.933, the relative viability ([16]; first compound 0.03162 µM) was 0.982 and the relative viability ([16]; first compound 0.1 µM) was 0.963. It also gave a relative viability ([16]; first compound 0.3162 µM) of 0.943, a relative viability ([16]; first compound 1 µM) of 0.796 and a relative viability ([17]; first compound 0.01 µM) of 1.04. It also gave a relative viability ([17]; first compound 0.03162 µM) of 1.01, a relative viability ([17]; first compound 0.1 µM) of 1.05 and a relative viability ([17]; first compound 0.3162 µM) of 0.966. For the same compound, the relative viability ([17]; first compound 1 µM) was 1.09, the relative viability ([18]; first compound 0.01 µM) was 1.09 and the relative viability ([18]; first compound 0.03162 µM) was 1.26. For the same compound, the relative viability ([18]; first compound 0.1 µM) was 1.36, the relative viability ([18]; first compound 0.3162 µM) was 1.39 and the relative viability ([18]; first compound 1 µM) was 1.33. It also gave a relative viability ([19]; first compound 0.01 µM) of 1.16, a relative viability ([19]; first compound 0.03162 µM) of 1.11 and a relative viability ([19]; first compound 0.1 µM) of 1.11. The relative viability ([19]; first compound 0.3162 µM) was 1.11, the relative viability ([19]; first compound 1 µM) was 1.14 and the relative viability ([20]; first compound 0.01 µM) was 1.34. For the same compound, the relative viability ([20]; first compound 0.03162 µM) was 1.05, the relative viability ([20]; first compound 0.1 µM) was 0.853 and the relative viability ([20]; first compound 0.3162 µM) was 0.36. It also gave a relative viability ([20]; first compound 1 µM) of 0.269, a relative viability ([21]; first compound 0.01 µM) of 1.12 and a relative viability ([21]; first compound 0.03162 µM) of 1.4. For the same compound, the relative viability ([21]; first compound 0.1 µM) was 1.21, the relative viability ([21]; first compound 0.3162 µM) was 1.22 and the relative viability ([21]; first compound 1 µM) was 0.771.
